# Structures can show the parent of a compound that is named as a salt. Where two headings read alike, the source gives them in different places.
# Assays:
# [1] = test system: human suspension cell line U 937; assay: Absorption of cells at 690 nm after treatment with different reagents; assay type: cell-based; details: reagent final concentration 1% (v/v)
# Method: The human suspension cell line U 937 was cultured in RPMI 1640 medium (Sigma Company) containing 10% foetal calf serum and 2 mM glutamine. The cells were then washed in fresh RPMI medium and adjusted to 25,000, 50,000 and 100,000 cells/100 μl. 100 μl thereof was in each case transferred to a 96-well standard microtitre plate. 50 μl RPMI medium containing the appropriate reagents was added by pipette to each of the cell solutions.
# The absorption of each well was measured at a wavelength of 690 nm after 5 min and 75 min incubation.
# [2] = test system: LDH; details: 0.2 M HCl, Triton X100 1% (v/v)
# Method: In another experiment HCl and NaOH were used as a stop reagent.
# For this purpose cell-free lysates each of 1000 cells were used in an LDH test with the components from the Cytotoxicity Detection Kit (LDH) containing the modified dye solution. After a reaction time of 30 min different stop reagents were added to these mixtures and the absorption was monitored at 492 nm (the absorption maximum of reduced INT).
# [3] = test system: LDH; assay type: biochemical, human; details: SDS 3% (v/v), sodium oxamate 15 mM, Triton X100 1% (v/v); for Absorption 0 min after adding stop reagent / Absorption 30 min after adding stop reagent / Absorption 120 min after adding stop reagent: 492 nm, lysate of 5000 cells, reaction time 5 min
# [4] = 492 nm, lysate of 1000 cells, reaction time 30 min
Compound,Absorption after 5 min ([1]; 25 000 U 937 cells),Absorption after 75 min ([1]; 25 000 U 937 cells),Absorption after 5 min ([1]; 50 000 U 937 cells),Absorption after 75 min ([1]; 50 000 U 937 cells),Absorption after 5 min ([1]; 100 000 U 937 cells),Absorption after 75 min ([1]; 100 000 U 937 cells),Termination of the LDH reaction (in words) [2],"Absorption 0 min after adding stop reagent [2, 4]","Absorption 30 min after adding stop reagent [2, 4]","Absorption 120 min after adding stop reagent [2, 4]",Absorption 0 min after adding stop reagent [3],Absorption 30 min after adding stop reagent [3],Absorption 120 min after adding stop reagent [3],Termination of the LDH reaction (in words) [3]
octylphenoxypolyethoxyethanol [Triton X100],0.001,0.001,0.004,0.004,0.008,0.008,–,–,–,–,–,–,–,–
CCCCCCCCCCCCN(C)CC(=O)O [N-laurylsarcosine],0.001,0.002,0.003,0.004,0.012,0.013,–,–,–,–,–,–,–,–
"CCCCCCCCCCCCCCCC[N+](C)(C)C.[Br-] [CTAB, cetyltrimethylammonium bromide]",0.006,0.003,0.031,0.014,0.025,0.018,–,–,–,–,–,–,–,–
Cl [HCl],–,–,–,–,–,–,suitable stop reagent,0.275,0.271,0.261,–,–,–,–
NC(=O)C(=O)[O-].[Na+] [sodium oxamate],–,–,–,–,–,–,–,–,–,–,0.113,0.127,0.179,stop the LDH reaction
"CCCCCCCCCCCC[N+](C)(C)C.[Br-] [DTAB, dodecyltrimethylammonium bromide]",0.005,0.006,0.012,0.011,0.024,0.021,–,–,–,–,–,–,–,–
"CCCCCCCCCCCCOS(=O)(=O)[O-].[Na+] [SDS, sodium dodecyl sulphate]",0.002,0.003,0.006,0.006,0.010,0.010,–,–,–,–,0.113,0.113,0.105,stop the LDH reaction

# — patent US7919268B2, “Reducing sample turbidity in measurement of enzymatic activity in cell lysates” (Roche Diagnostics Operations, Inc., priority 2005, dated 2011)
